According to ChEMBL document CHEMBL5321245, “Synthesis and Bioactivity of Isoflavones from Ficus carica and Some Non-Natural Analogues” (J Nat Prod, 2023):
In brackets after ≈: the same amount, converted by molar mass.

How the values were obtained:
Providencia stuartii [1] = assay: Antibacterial activity against Providencia stuartii ATCC29916 assessed as inhibition of bacterial growth incubated for 24 hrs by broth microdilution method; format: functional
Pseudomonas aeruginosa [2] = assay: Antibacterial activity against Pseudomonas aeruginosa PA124 assessed as inhibition of bacterial growth incubated for 18 to 24 hrs by microdilution method; format: functional; conditions: time 18-24 hrs
Nannizzia gypsea = assay: Antimicrobial activity against Microsporum gypseum E1420 assessed as inhibition of microbial growth incubated for 5 days by broth microdilution method; format: functional; conditions: E1420, 120 h, time 5 day
Staphylococcus aureus [3] = assay: Antibacterial activity against methicillin-resistant Staphylococcus aureus 6 assessed as inhibition of bacterial growth incubated for 18 to 24 hrs in the presence of PAbetaN by microdilution method; format: functional; conditions: time 18-24 hrs
Escherichia coli [4] = assay: Antibacterial activity against Escherichia coli AG102 assessed as inhibition of bacterial growth incubated for 18 to 24 hrs in the presence of PAbetaN by microdilution method; format: functional; conditions: time 18-24 hrs
Providencia stuartii [5] = assay: Antibacterial activity against Providencia stuartii PS2636 assessed as inhibition of bacterial growth incubated for 18 to 24 hrs by microdilution method; format: functional; conditions: time 18-24 hrs
Providencia stuartii [6] = assay: Antibacterial activity against Providencia stuartii NEA16 assessed as inhibition of bacterial growth incubated for 18 to 24 hrs in the presence of PAbN by microdilution method; format: functional; conditions: time 18-24 hrs
Pseudomonas aeruginosa [7] = assay: Antibacterial activity against Pseudomonas aeruginosa PA124 assessed as inhibition of bacterial growth incubated for 18 to 24 hrs in the presence of PAbetaN by microdilution method; format: functional; conditions: time 18-24 hrs
Staphylococcus aureus [8] = assay: Antibacterial activity against Staphylococcus aureus […] assessed as inhibition of bacterial growth incubated for 24 hrs by broth microdilution method; format: functional
CCRF-CEM [9] = assay: Cytotoxicity against drug sensitive human CCRF-CEM cells assessed as inhibition of cell growth at 10 uM incubated for 72 hrs by resazurin dye based assay relative to control; format: functional
Klebsiella pneumoniae [10] = assay: Antibacterial activity against Klebsiella pneumoniae ATCC 11296 assessed as inhibition of bacterial growth incubated for 18 to 24 hrs by microdilution method; format: functional; conditions: time 18-24 hrs
Enterococcus faecalis = assay: Antibacterial activity against Enterococcus faecalis ATCC10541 assessed as inhibition of bacterial growth incubated for 24 hrs by broth microdilution method; format: functional
Staphylococcus aureus [11] = assay: Antibacterial activity against methicillin-resistant Staphylococcus aureus 6 assessed as inhibition of bacterial growth incubated for 18 to 24 hrs by microdilution method; format: functional; conditions: time 18-24 hrs
Escherichia coli [12] = assay: Antibacterial activity against Escherichia coli ATCC 10536 assessed as inhibition of bacterial growth incubated for 18 to 24 hrs by microdilution method; format: functional; conditions: time 18-24 hrs
Klebsiella pneumoniae [13] = assay: Antibacterial activity against Klebsiella pneumoniae KP63 assessed as inhibition of bacterial growth incubated for 18 to 24 hrs in presence of PAbetaN by microdilution method; format: functional; conditions: time 18-24 hrs
Klebsiella pneumoniae [14] = assay: Antibacterial activity against Klebsiella pneumoniae KP63 assessed as inhibition of bacterial growth incubated for 18 to 24 hrs by microdilution method; format: functional; conditions: time 18-24 hrs
Candida albicans = assay: Antimicrobial activity against Candida albicans ATCC 2091 assessed as inhibition of microbial growth incubated for 48 hrs by broth microdilution method; format: functional
Staphylococcus aureus [15] = assay: Antibacterial activity against methicillin-resistant Staphylococcus aureus 4 assessed as inhibition of bacterial growth incubated for 18 to 24 hrs in the presence of PAbetaN by microdilution method; format: functional; conditions: time 18-24 hrs
Providencia stuartii [16] = assay: Antibacterial activity against Providencia stuartii PS2636 assessed as inhibition of bacterial growth incubated for 18 to 24 hrs in the presence of PAbetaN by microdilution method; format: functional; conditions: time 18-24 hrs
Pseudomonas aeruginosa [17] = assay: Antibacterial activity against Pseudomonas aeruginosa PA01 assessed as inhibition of bacterial growth incubated for 18 to 24 hrs by microdilution method; format: functional; conditions: time 18-24 hrs
[18] = tested on: Meyerozyma guilliermondii; assay: Antimicrobial activity against clinical isolate Candida guilliermondii assessed as inhibition of microbial growth incubated for 48 hrs by broth microdilution method; format: functional
Providencia stuartii [19] = assay: Antibacterial activity against Providencia stuartii NEA16 assessed as inhibition of bacterial growth incubated for 18 to 24 hrs by microdilution method; format: functional; conditions: time 18-24 hrs
Klebsiella pneumoniae [20] = assay: Antibacterial activity against Klebsiella pneumoniae ATCC 11296 assessed as inhibition of bacterial growth incubated for 18 to 24 hrs in presence of PAbetaN by microdilution method; format: functional; conditions: time 18-24 hrs
Escherichia coli [21] = assay: Antibacterial activity against Escherichia coli AG102 assessed as inhibition of bacterial growth incubated for 18 to 24 hrs by microdilution method; format: functional; conditions: time 18-24 hrs
Staphylococcus aureus [22] = assay: Antibacterial activity against methicillin-resistant Staphylococcus aureus 4 assessed as inhibition of bacterial growth incubated for 18 to 24 hrs by microdilution method; format: functional; conditions: time 18-24 hrs
Pseudomonas aeruginosa [23] = assay: Antibacterial activity against Pseudomonas aeruginosa PA01 assessed as inhibition of bacterial growth incubated for 18 to 24 hrs in the presence of PAbetaN by microdilution method; format: functional; conditions: time 18-24 hrs
Escherichia coli [24] = assay: Antibacterial activity against Escherichia coli ATCC 10536 assessed as inhibition of bacterial growth incubated for 18 to 24 hrs in the presence of PAbetaN by microdilution method; format: functional; conditions: time 18-24 hrs
ADR5000 cell line = assay: Cytotoxicity against multidrug resistant human CEM/ADR5000 cells overexpressing p-glycoprotein assessed as inhibition of cell growth incubated for 72 hrs by resazurin dye based assay; format: functional; conditions: ADR5000, 72 h
CCRF-CEM [25] = assay: Cytotoxicity against drug sensitive human CCRF-CEM cells assessed as inhibition of cell growth incubated for 72 hrs by resazurin dye based assay; format: functional
A549 = assay: Antiproliferative activity against human A549 cells assessed as inhibition of cell growth by MTT assay; format: functional, cell-based
HL-60 = assay: Antiproliferative activity against human HL-60 cells assessed as inhibition of cell growth by MTT assay; format: functional, cell-based
RAW264.7 = assay: Antiinflammatory activity in mouse RAW264.7 cells assessed as inhibition of LPS-induced NO production; format: functional, cell-based
MCF7 = assay: Antiproliferative activity against human MCF7 cells assessed as inhibition of cell growth by MTT assay; format: functional, cell-based
SW480 = assay: Antiproliferative activity against human SW480 cells assessed as inhibition of cell growth by MTT assay; format: functional, cell-based
SMMC-7721 = assay: Antiproliferative activity against human SMMC-7721 cells assessed as inhibition of cell growth by MTT assay; format: functional, cell-based
[26] = Resistance index, ratio of IC50 for multidrug resistant human CEM/ADR5000 cells overexpressing p-glycoprotein to IC50 for drug sensitive human CCRF-CEM cells; format: functional

Row | SMILES | MIC (Pseudomonas aeruginosa [2]) [µg/mL] | MIC (Staphylococcus aureus [3]) [µg/mL] | MIC (Escherichia coli [4]) [µg/mL] | MIC (Providencia stuartii [5]) [µg/mL] | MIC (Providencia stuartii [6]) [µg/mL] | MIC (Pseudomonas aeruginosa [7]) [µg/mL] | MIC (Klebsiella pneumoniae [10]) [µg/mL] | MIC (Staphylococcus aureus [11]) [µg/mL] | MIC (Escherichia coli [12]) [µg/mL] | MIC (Klebsiella pneumoniae [13]) [µg/mL] | MIC (Klebsiella pneumoniae [14]) [µg/mL] | MIC (Staphylococcus aureus [15]) [µg/mL] | MIC (Providencia stuartii [16]) [µg/mL] | MIC (Pseudomonas aeruginosa [17]) [µg/mL] | MIC (Providencia stuartii [19]) [µg/mL] | MIC (Klebsiella pneumoniae [20]) [µg/mL] | MIC (Escherichia coli [21]) [µg/mL] | MIC (Staphylococcus aureus [22]) [µg/mL] | MIC (Pseudomonas aeruginosa [23]) [µg/mL] | MIC (Escherichia coli [24]) [µg/mL] | also measured
1 | COc1c(CC=C(C)C)c(O)cc2occ(-c3ccc4c(c3)OCO4)c(=O)c12 | – | – | – | – | – | – | – | – | – | – | – | – | – | – | – | – | – | – | – | – | MIC (Providencia stuartii [1]): 25 µg/mL (≈ 65.7 µM)
2 | COc1cc2occ(-c3ccc(O)cc3)c(=O)c2c(OC)c1CC=C(C)C | 32 (≈ 87.3 µM) | 32 | 4 | 130 (≈ 355 µM) | 1 | 4 | 130 (≈ 355 µM) | 32 (≈ 87.3 µM) | 130 (≈ 355 µM) | 1 | 16 (≈ 43.7 µM) | 32 | 4 | 130 (≈ 355 µM) | 8 (≈ 21.8 µM) | 2 | 16 (≈ 43.7 µM) | 64 (≈ 175 µM) | 130 | 2 | MIC (Nannizzia gypsea): 12.5 µg/mL; MIC (Providencia stuartii [1]): ≥ 100 µg/mL; MIC (Staphylococcus aureus [8]): ≥ 100 µg/mL; inhibition at 10 µM (CCRF-CEM [9]): < 50%; MIC (Enterococcus faecalis): ≥ 100 µg/mL; MIC (Candida albicans): 12.5 µg/mL; MIC [18]: 12.5 µg/mL
3 | COc1cc2occ(-c3ccc4[nH]ccc4c3)c(=O)c2c(OC)c1CC=C(C)C | > 130 | 1 | 64 | 64 (≈ 164 µM) | 8 | 2 | 130 (≈ 334 µM) | 32 (≈ 82.2 µM) | 130 (≈ 334 µM) | 1 | > 130 | 4 | 4 | 130 (≈ 334 µM) | 130 (≈ 334 µM) | 4 | 130 (≈ 334 µM) | > 130 | 8 | 130 | inhibition at 10 µM (CCRF-CEM [9]): < 50%
4 | COc1cc2occ(-c3ccc(C=O)cc3)c(=O)c2c(OC)c1CC=C(C)C | 130 (≈ 344 µM) | 64 | 8 | 130 (≈ 344 µM) | 2 | 8 | > 130 | 130 (≈ 344 µM) | 32 (≈ 84.6 µM) | 2 | 130 (≈ 344 µM) | 8 | 16 | 64 (≈ 169 µM) | 64 (≈ 169 µM) | 8 | 130 (≈ 344 µM) | 130 (≈ 344 µM) | 16 | 8 | IC50 (ADR5000 cell line): 20 µM; IC50 (CCRF-CEM [25]): 20 µM
5 | COc1cc2occ(-c3ccc(C#N)cc3)c(=O)c2c(OC)c1CC=C(C)C | > 130 | 16 | 130 | 130 (≈ 346 µM) | 1 | 32 | 130 (≈ 346 µM) | 130 (≈ 346 µM) | 32 (≈ 85.2 µM) | 1 | > 130 | 4 | 8 | 130 (≈ 346 µM) | 16 (≈ 42.6 µM) | 4 | 130 (≈ 346 µM) | 64 (≈ 170 µM) | 32 | 2 | IC50 (ADR5000 cell line): 20 µM; IC50 (CCRF-CEM [25]): 20 µM
6 | COc1ccc(-c2coc3cc(OC)c(CC=C(C)C)c(OC)c3c2=O)cc1 | 64 (≈ 168 µM) | 2 | 2 | 130 (≈ 342 µM) | 4 | 8 | 130 (≈ 342 µM) | 32 (≈ 84.1 µM) | 32 (≈ 84.1 µM) | 1 | > 130 | 8 | 4 | > 130 | 130 (≈ 342 µM) | 2 | 32 (≈ 84.1 µM) | 64 (≈ 168 µM) | 64 | 2 | IC50 (A549): 0.63 µM; IC50 (HL-60): 0.63 µM; inhibition at 10 µM (CCRF-CEM [9]): < 50%; IC50 (RAW264.7): 2.06 µM; IC50 (MCF7): 0.63 µM; IC50 (SW480): 0.63 µM; IC50 (SMMC-7721): 0.63 µM
7 | COc1cc2occ(-c3ccc4c(c3)OCO4)c(=O)c2c(OC)c1CC=C(C)C | 130 (≈ 330 µM) | 2 | 32 | 130 (≈ 330 µM) | 8 | 4 | 130 (≈ 330 µM) | 32 (≈ 81.1 µM) | 130 (≈ 330 µM) | 1 | 16 (≈ 40.6 µM) | 32 | 32 | 64 (≈ 162 µM) | 130 (≈ 330 µM) | 1 | 130 (≈ 330 µM) | 130 (≈ 330 µM) | 16 | 64 | inhibition at 10 µM (CCRF-CEM [9]): < 50%
8 | O=C(O)c1cn(C2CC2)c2cc(N3CCNCC3)c(F)cc2c1=O [CIPROFLOXACIN] | 4 (≈ 12.1 µM) | 1 | – | 4 (≈ 12.1 µM) | 0.25 | 1 | 1 (≈ 3.02 µM) | 4 (≈ 12.1 µM) | – | – | – | 1 | 0.5 | – | 2 (≈ 6.04 µM) | – | – | 8 (≈ 24.1 µM) | – | – | –
9 | CC(=O)O[C@H]1C(=O)[C@@]2(C)[C@H]([C@H](OC(=O)c3ccccc3)[C@]3(O)C[C@H](OC(=O)[C@H](O)[C@@H](NC(=O)c4ccccc4)c4ccccc4)C(C)=C1C3(C)C)[C@]1(OC(C)=O)CO[C@@H]1C[C@@H]2O [PACLITAXEL] | – | – | – | – | – | – | – | – | – | – | – | – | – | – | – | – | – | – | – | – | Ratio IC50 [26]: 390
